Our source for the EC50 values is US12180226B2, “Spirotricycle RIPK1 inhibitors and methods of uses thereof” (Merck Sharp & Dohme LLC, priority 2021, dated 2024).

Structures are written as SMILES. pEC50: −log10 of the molar value.

For this assay, the target named is RIPK1 (recombinant GST-RIPK1 kinase domain, residues 1-327) (Homo sapiens (Human), UniProt Q13546). Nature of the assay: RIPK1-ADP-Glo Enzymatic Assay. Type of assay: biochemical. Particulars: ADP-Glo; 25 nM GST-RIPK1, 300 μM ATP; assay lower limit ~25 nM; read-out: RIPK1 V0 Ec50. An outline of the steps: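 Using dephosphorylated MBP (3 μM) as substrate and 300 μM ATP, 25 nM baculovirus-produced enzyme was reacted for 150 min after a 30-min compound pre-incubation. Luminescent ADP detection followed; lower confidence limit ~25 nM.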
Sequence of RIPK1 (recombinant GST-RIPK1 kinase domain, residues 1-327) (Q13546 1-327): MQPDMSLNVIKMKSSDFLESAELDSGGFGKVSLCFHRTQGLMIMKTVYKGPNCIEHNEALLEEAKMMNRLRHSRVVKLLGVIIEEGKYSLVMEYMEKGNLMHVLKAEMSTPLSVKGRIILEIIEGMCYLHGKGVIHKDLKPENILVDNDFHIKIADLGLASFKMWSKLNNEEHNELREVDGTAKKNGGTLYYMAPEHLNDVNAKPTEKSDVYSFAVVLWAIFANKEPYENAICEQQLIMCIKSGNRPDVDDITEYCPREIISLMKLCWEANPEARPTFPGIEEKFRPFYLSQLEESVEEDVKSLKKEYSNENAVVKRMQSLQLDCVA
(In general: In ADP-Glo the light output rises with the ADP produced.)
The pEC50 is −log10 of the EC50, conventionally taken in molar units. `O=C1N2C(CCC2c2c(F)cccc2F)OC12CCN(c1ccnc3ccnn13)CC2` (stereo not drawn) [Example 20.8, 5′-(2,6-difluorophenyl)-1-(pyrazolo[1,5-a]pyrimidin-7-yl)tetrahydro-3′H-spiro[piperidine-4,2′-pyrrolo[2,1-b][1,3]oxazol]-3′-one]: the pEC50 is more than 7.60. Turning to `O=C1N2[C@H](CC13CCN(c1ccnc4c(F)cnn14)CC3)OC[C@H]2c1ccccc1` [Example 4.120, (3′R,7a′S)-1-(3-fluoropyrazolo[1,5-a]pyrimidin-7-yl)-3′-phenyltetrahydro-5′H-spiro[piperidine-4,6′-pyrrolo[2,1-b] [1,3]oxazol]-5′-one], the pEC50 is more than 7.60. Under `N#Cc1ccc(F)c(C(=O)N2CCC3(CC2)O[C@@H]2CC[C@@H](c4ccccc4)N2C3=O)c1` [Example 6.148] stands more than 7.60.

Take `CC1CN(C(=O)c2ccccc2)CCC12O[C@@H]1CC[C@@H](c3cc(F)cc(F)c3)N1C2=O` (single isomer, unassigned) [Example 2.5, (3[S or R],4[R or S], 5′S,7a′R)-1-benzoyl-5′-(3,5-difluorophenyl)-3-methyltetrahydro-3′H-spiro[piperidine-4,2′-pyrrolo[2,1-b]oxazol]-3′-one]: the pEC50 was 7.39. The value for `O=C(c1cc(F)ccc1F)N1CCC2(O[C@@H]3CC[C@@H](c4ccccc4)N3C2=O)C(F)C1` (stereo partly drawn) [Example 6.112] was more than 7.60; that for `CC1CN(C(=O)c2ccccc2)CCC12O[C@@H]1CC[C@@H](c3cc(F)cc(F)c3)N1C2=O` (stereo partly drawn) [Example 6.109, (5′S,7a′R)-1-(benzene-carbonyl)-5′-(3,5-difluorophenyl)-3-methyltetrahydro-3′H-spiro[piperidine-4,2′-pyrrolo[2,1-b][1,3]-oxazol]-3′-one] was more than 7.60; that for `O=C(c1cc(F)ccn1)N1CCC2(CC1)O[C@@H]1CC[C@@H](c3cc(F)cc(F)c3)N1C2=O` [Example 6.92, (5′S,7a′R)-5′-(3,5-difluorophenyl)-1-(4-fluoropyridine-2-carbonyl)tetrahydro-3′H-spiro[piperidine-4,2′-pyrrolo[2,1-b] [1,3]oxazol]-3′-one] was 7.39. With `CC1CN(c2cccc3ncnn23)CCC12O[C@@H]1CC[C@@H](c3cc(F)cc(F)c3)N1C2=O` (stereo partly drawn) [Example 4.266, (5′S,7a′R)-5′-(3,5-difluorophenyl)-3-methyl-1-([1,2,4]triazolo[1,5-a]pyridin-5-yl)tetrahydro-3′H-spiro[piperidine-4,2′-pyrrolo[2,1-b] [1,3]oxazol]-3′-one], the pEC50 is more than 7.60.

`O=C(c1ccccc1OC(F)F)N1CCC2(CC1)O[C@@H]1CC[C@@H](c3cc(F)cc(F)c3)N1C2=O` [Example 6.61, (5′S,7a′R)-1-[2-(difluoromethoxy)-benzene-1-carbonyl]-5′-(3,5-difluorophen-yl)tetrahydro-3′H-spiro[piperidine-4,2′-pyrrolo[2,1-b][1,3]-oxazol]-3′-one]: the negative-log EC50 (pEC50) was 6.58. The value for `CCOC(=O)c1coc(-c2ccnc(N3CCC4(CC3)O[C@@H]3CC[C@@H](c5ccccc5)N3C4=O)c2)n1` [Example 4.173, ethyl 2-{2-[(5′S,7a′R)-3′-oxo-5′-phenyltetrahydro-1H,3′H-spiro[piperidine-4,2′-pyrrolo[2,1-b] [1,3]oxazol]-1-yl]pyridin-4-yl}-1,3-oxazole-4-carboxylate] was 7.16; that for `O=C1N2[C@@H](CC[C@H]2c2ccccc2)OC12CCN(c1ncc(-c3ncco3)c(C(F)F)n1)CC2` [Example 21.3, (5′S,7a′R)-1-[4-(difluoromethyl)-5-(1,3-oxazol-2-yl)pyrimidin-2-yl]-5′-phenyltetrahydro-3′H-spiro[piperidine-4,2′-pyrrolo[2,1-b][1,3]oxazol]-3′-one] was more than 7.60.

`N#Cc1ccc(F)c(C(=O)N2CCC3(CC2)O[C@@H]2CC[C@@H](c4cccc(F)c4)N2C3=O)c1` [Example 6.130, 4-fluoro-3-[(5′S,7a′R)-5′-(3-fluorophenyl)-3′-oxotetrahydro-1H,3′H-spiro[piperidine-4,2′-pyrrolo[2,1-b][1,3]-oxazole]-1-carbonyl] benzonitrile]: the pEC50 is more than 7.60.

With `COc1ncnc(N2CCC3(CC2)O[C@@H]2CC[C@@H](c4ccccc4)N2C3=O)c1F` [Example 11.28, (5′S,7a′R)-1-(5-fluoro-6-methoxypyrimidin-4-yl)-5′-phenyltetrahydro-3′H-spiro[piperidine-4,2′-pyrrolo[2,1-b][1,3]oxazol]-3′-one], the pEC50 is more than 7.60. Under `Cc1nc(N2CCC3(CC2)O[C@@H]2CC[C@@H](c4cc(F)cc(F)c4)N2C3=O)ccc1C#N` [Example 4.42, 6-[(5′S,7a′R)-5′-(3,5-difluorophenyl)-3′-oxotetrahydro-1H,3′H-spiro[piperidine-4,2′-pyrrolo[2,1-b] [1,3]oxazol]-1-yl]-2-methylpyridine-3-carbonitrile] stands more than 7.60; under `O=C(c1ccc(N2CCC3(CC2)O[C@@H]2CC[C@@H](c4ccccc4)N2C3=O)nc1)C(F)F` [Example 4.161, (5′S,7a′R)-1-[5-(difluoroacetyl)pyridin-2-yl]-5′-phenyltetrahydro-3′H-spiro[piperidine-4,2′-pyrrolo[2,1-b] [1,3]oxazol]-3′-one], more than 7.60; under `CC1CN(C(=O)c2ccccc2)CCC12O[C@@H]1CC[C@@H](c3cc(F)cc(F)c3)N1C2=O` (single isomer, unassigned) [Example 2.4, (3[R or S],4[R or S], 5′S,7a′R)-1-benzoyl-5′-(3,5-difluorophenyl)-3-methyltetrahydro-3′H-spiro[piperidine-4,2′-pyrrolo[2,1-b]oxazol]-3′-one], more than 7.60. As for `O=C1N2[C@@H](CC[C@H]2c2ccccc2)OC12CCN(c1ccnc(-c3ccccc3)n1)CC2` [Example 11.14, (5′S,7a′R)-5′-phenyl-1-(2-phenylpyrimidin-4-yl)tetrahydro-3′H-spiro[piperidine-4,2′-pyrrolo[2,1-b][1,3]oxazol]-3′-one], the pEC50 is 7.47. The value for `N#Cc1cnnc(N2CCC3(CC2)O[C@@H]2CC[C@@H](c4cc(F)cc(F)c4)N2C3=O)c1` [Example 4.19, 6-[(5′S,7a′R)-5′-(3,5-difluorophenyl)-3′-oxotetrahydro-1H,3′H-spiro[piperidine-4,2′-pyrrolo[2,1-b] [1,3]oxazol]-1-yl]pyridazine-4-carbonitrile] was 6.32. In the case of `Cc1nccc(C(=O)N2CCC3(CC2)O[C@@H]2CC[C@@H](c4cc(F)cc(F)c4)N2C3=O)n1` [Example 6.95], the pEC50 is 6.61.

With `O=C(C1CC1)N1CCC2(CC1)O[C@@H]1CC[C@@H](c3cc(F)cc(F)c3)N1C2=O` [Example 1.8, (5′S,7a′R)-1-(cyclopropanecarbonyl)-5′-(3,5-difluorophenyl)tetrahydro-3′H-spiro[piperidine-4,2′-pyrrolo[2,1-b] [1,3]oxazol]-3′-one], the pEC50 was 6.59. With `C#Cc1ccnc(C(=O)N2CCC3(CC2)O[C@@H]2CC[C@@H](c4cc(F)cc(F)c4)N2C3=O)c1` [Example 5.43, (5′S,7a′R)-5′-(3,5-difluoro-phenyl)-1-(4-ethynylpico-linoyl)tetrahydro-3′H-spiro[piperidine-4,2′-pyrrolo[2,1-b]oxazol]-3′-one], the pEC50 is more than 7.60.
